{
  "source": "patent USRE38169E1",
  "about": "“Hyperstabilizing antisense nucleic acid binding agents” (priority 1993, dated 2003)",
  "key": {"[1]": {"system": "mRNA of a fragment of the env gene of EIAV", "assay": "In vitro translation (wheat-germ extract, 35S-methionine)", "assay_type": "biochemical", "procedure": "The in vitro translation studies were performed as follows. A fragment of DNA from the env gene of EIAV was transcribed with an SP-6 polymerase kit, and the resulting mRNA (approximately 600 bases long) was capped and isolated. The transcribed fragment included the target sequence 5′-[…]-3′ (SEQ ID NO. 3) (the CC-1065 binding site is underlined). The corresponding antisense sequence (using normal phosphodiester chemistry) was 5′-[…]-3′ (SEQ ID NO. 4). Translation was performed with a wheat-germ extract (Promega) in the presence of ^35S-methionine. The mRNA's were divided into approximately 2 μg aliquots, and treated according to the protocols listed for Table 3 below. Treated mRNA was separated from small molecules (such as DMSO and CC-1065) with a Sephadex 50-based NICK column. Translation was carried out in 25 μl of buffer containing the wheat germ translation system; the isolated mRNA; amino acids, including the labelled methionine; and RNAsin, an inhibitor of RNase. The proteins produced were divided into two aliquots. One aliquot was fractionated by SDS-PAGE, followed by autoradiography; and the other was analyzed by scintillation spectrometry. The concentrations of antisense oligomers and CC-1065 in the free-solution chemistries were relatively high compared to the sense target, to optimize duplex formation and drug binding. […] The following pairs were different at the P<0.05 level by Student's t-test (unpaired analysis): 1,5; 2,5; 3,4; 3,5; 4,5."}, "[2]": {"system": "DNA sense (SEQ ID NO. 1) / DNA-PO antisense duplex (PO-PO)", "assay": "Duplex strand separation temperature (Tm)", "assay_type": "binding, equine infectious anemia retrovirus", "conditions": "for Tm Elevation: highest level of binding obtained", "procedure": "(§1) Samples for determining Tm were also obtained by the above procedures. […] Thus the effects of this agent on Tm were carried out with Distamycin in solution with the duplexes tested.\n(§2) Tm's were determined on a Gilford 2400 Spectrophotometer set at 260 nm, with a 4-chamber Peltier-based temperature controller. Temperature was ramped linearly at 0.5° C./min. Absorbance data were acquired with a 12-bit A/D converter, and data were processed with Lotus 123W and SigmaPlot software. Tm values were determined from the plots as the midpoint of the thermal transitions."}, "[3]": {"system": "DNA sense (SEQ ID NO. 1) / DNA-PS antisense duplex", "assay": "Duplex strand separation temperature (Tm)", "assay_type": "binding, equine infectious anemia retrovirus", "conditions": "for Tm Elevation: highest level of binding obtained", "procedure": "as §1, §2"}, "[4]": {"system": "Oligo dA - Oligo dT", "assay": "Duplex strand separation temperature (Tm)", "assay_type": "binding", "conditions": "for Tm Elevation: highest level of binding obtained", "procedure": "as §1, §2"}, "[5]": {"system": "Poly rA - Oligo dT (PO)", "assay": "Duplex strand separation temperature (Tm)", "assay_type": "binding", "conditions": "for Tm Elevation: highest level of binding obtained", "procedure": "as §1, §2"}, "[6]": {"system": "DNA sense (SEQ ID NO. 1) / DNA-MP antisense duplex (PO-MP)", "assay": "Binding of drug to duplex (NACS column, A365/A260)", "set-up": "species or system equine infectious anemia retrovirus", "procedure": "(§3) Oligodeoxyribonucleotides were obtained by chemical synthesis through standard techniques on an automated synthesizer located in the Department of Veterinary Microbiology and Parasitology at Louisiana State University. Antisense MP and PS oligonucleotides were obtained from commercial sources, as was synthetic sense RNA. Poly(rA) was obtained from Sigma Chemical Co. CC-1065 was obtained from the Upjohn Company. Oligonucleotides (0.075 μmol-P each) were mixed in 0.36 ml 0.01 M Na cacodylate buffer, pH 7.2, with CC-1065 in dimethyl formamide (0.04 ml), or with dimethylformamide only. (Note that “μmol-P” denotes μmoles of phosphate; i.e., μmoles of nucleotide bases, rather than of oligonucleotides per se.) Incubations of complementary strands, with or without drug, were carried out at 37° C. for 4 hr. In the initial experiments, unbound drug was separated from nucleotide duplexes by ethanol precipitation. Equivalent results were obtained by trapping the oligonucleotides and CC-1065 on NACS-52 columns, and washing first with low-salt buffer and then with buffer containing 1M NaCl. Unbound CC-1065 was completely retained on the column. […] Samples prepared in this manner could be directly used for determination of binding of the drug to the nucleic acid (as measured by the A365/A260 ratio), with the extinction of CC-1065 absorbance at 365 nm taken as 48,000, and the extinction of the nucleic acid absorption at 260 nm based on its composition. Similar approaches were used with the drug U-71,184, with an assumed extinction of 32,000 at 365 nm.\n(§4) When methyl phosphonate and synthetic RNA were used, the purities of the crude oligonucleotides were taken to be about 30%, based on the data sheet prepared by the supplier. (The remainder comprised primarily truncated sequences.) Appropriate excess amounts of these agents were included in the reactions to ensure helix formation. The corresponding sense or antisense oligonucleotides were maintained at 0.075 μmol-P in the reaction. […] Unpurified materials were used in these preliminary studies because of the relatively high cost of purified oligoribonucleotides. The majority of the contributions to A260 for these samples should be due to material that was not duplexed.\n(§5) Table 1 summarizes binding data obtained from incubations of CC-1065 with nucleotides at greater than stoichiometric levels; the levels used in these experiments were 1 drug molecule/10 nucleotide residues, which is equivalent to 4 drug molecules/20-mer duplex. […] There seemed to be no difference in drug binding between antisense oligonucleotides with a PO and those with a PS backbone. Again, the 5′-AGTTA-3′ sequence on the sense strand was presumably the primary target, and the 3′-AAGTA-5′ on the antisense probe was presumably the secondary target."}, "[7]": {"system": "DNA sense (SEQ ID NO. 1) / DNA-PO antisense (SEQ ID NO. 2) duplex (PO-PO)", "assay": "Binding of drug to duplex (NACS column, A365/A260)", "set-up": "species or system equine infectious anemia retrovirus", "conditions": "PO-PO; Initial D/N = 0.10", "procedure": "as §3, §4, §5"}, "[8]": {"system": "DNA sense (SEQ ID NO. 1) / DNA-PS antisense duplex (PO-PS)", "assay": "Binding of drug to duplex (NACS column, A365/A260)", "set-up": "species or system equine infectious anemia retrovirus", "conditions": "PO-PS; Initial D/N = 0.10", "procedure": "as §3, §4, §5"}, "[9]": {"system": "Oligo(dA)-Oligo(dT)", "assay": "Binding of drug to duplex (NACS column, A365/A260)", "conditions": "Oligo(dA)-Oligo(dT); Initial D/N = 0.10", "procedure": "as §3, §4, §5"}, "[10]": {"system": "Poly(rA)-Oligo(dT)", "assay": "Binding of drug to duplex (NACS column, A365/A260)", "conditions": "Poly(rA)-Oligo(dT); Initial D/N = 0.10", "procedure": "as §3, §4, §5"}, "[11]": {"system": "DNA sense (SEQ ID NO. 1) / DNA-MP antisense duplex (PO-MP)", "assay": "Duplex strand separation temperature (Tm)", "assay_type": "binding, equine infectious anemia retrovirus", "procedure": "as §1, §2"}},
  "data": [
    {"compound": "5′-TGTTGGGTAATAGGGGTTGA-3′ (SEQ ID NO. 4) (chemistry not given here) [antisense]", "values": [
      {"measurement": "DPM S-35 ± standard error", "setting": "[1]; 1.95 μg mRNA, antisense about 3 times mRNA sense, CC-1065 3 times antisense, scintillation spectrometry", "value": "35.225 ± 3.667", "unit": "DPM"},
      {"measurement": "Production of the two protein products (autoradiography)", "setting": "[1]; SDS-PAGE, autoradiography, data not shown", "value": "suppressed production"},
      {"measurement": "Effect on translation", "setting": "[1]; in vitro translation of env mRNA fragment", "value": "partially inhibit translation"}
    ]},
    {"compound": "Cn1cc(NC(=O)c2cc(NC(=O)c3cc(NC=O)cn3C)cn2C)cc1C(=O)NCCC(=N)N", "note": "[Distamycin, Distamycin A]", "values": [
      {"measurement": "Increase in Tm", "setting": "[2]; PO-PO, Distamycin in solution at D/N = 0.1", "value": 0.7},
      {"measurement": "Tm with Distamycin, Ave ± S.D.", "setting": "[2]; PO-PO, Distamycin in solution at D/N = 0.1, in °C (unit assumed)", "value": "68.7 ± 0.6"},
      {"measurement": "Tm Elevation", "setting": "[2]; PO-PO", "value": 0.7, "unit": "°C"},
      {"measurement": "Increase in Tm", "setting": "[3]; PS-PS, Distamycin in solution at D/N = 0.1", "value": 1.5},
      {"measurement": "Tm with Distamycin, Ave ± S.D.", "setting": "[3]; PS-PS, Distamycin in solution at D/N = 0.1, in °C (unit assumed)", "value": "65.7 ± 1.5"},
      {"measurement": "Tm Elevation", "setting": "[3]; PS-PS", "value": 1.5, "unit": "°C"},
      {"measurement": "Increase in Tm", "setting": "[4]; dA-dT, Distamycin in solution at D/N = 0.1", "value": 21.3},
      {"measurement": "Tm with Distamycin, Ave ± S.D.", "setting": "[4]; dA-dT, Distamycin in solution at D/N = 0.1, in °C (unit assumed)", "value": "78.3 ± 0.6"},
      {"measurement": "Tm Elevation", "setting": "[4]; dA-dT", "value": 21.3, "unit": "°C"},
      {"measurement": "Elevation of Tm", "setting": "[4]; oligo(dA)-oligo(dT)", "value": "significant elevation of Tm"},
      {"measurement": "Increase in Tm", "setting": "[5]; rA-dT, Distamycin in solution at D/N = 0.1", "value": 4.0},
      {"measurement": "Tm with Distamycin, Ave ± S.D.", "setting": "[5]; rA-dT, Distamycin in solution at D/N = 0.1, in °C (unit assumed)", "value": "57.0 ± 0"},
      {"measurement": "Tm Elevation", "setting": "[5]; rA-dT", "value": 4.0, "unit": "°C"}
    ]},
    {"compound": "Cc1c[nH]c2c1C13CC1CN(C(=O)c1cc4cc(NC(=O)c5cc6ccccc6[nH]5)ccc4[nH]1)C3=CC2=O", "note": "(stereo not drawn) [U-71.184, U-71,184]", "values": [
      {"measurement": "Binding for MP antisense sequences", "setting": "[6]; MP antisense sequences", "value": "about 1 drug molecule/duplex"},
      {"measurement": "Bound D/N", "setting": "[6]; PO-MP, Initial D/N = 0.10", "value": "0.029 ± 0.001"},
      {"measurement": "Bound D/N", "setting": "[7]", "value": "0.026 ± 0.004"},
      {"measurement": "Bound D/N", "setting": "[8]", "value": "0.026 ± 0.001"},
      {"measurement": "Bound D/N", "setting": "[9]", "value": "0.049 ± 0.001"},
      {"measurement": "Bound D/N", "setting": "[10]", "value": "0.023 ± 0.001"},
      {"measurement": "Duplex Strand Separation Temperature", "setting": "[11]; DNA / DNA-MP, drug-bound duplex (Table 6)", "value": "73.0 ± 1.7"},
      {"measurement": "Tm Elevation", "setting": "[11]; PO-MP, highest level of binding obtained", "value": 19.5, "unit": "°C"},
      {"measurement": "Duplex Strand Separation Temperature", "setting": "[2]; DNA / DNA-PO, drug-bound duplex (Table 6)", "value": "75.5 ± 0.7"},
      {"measurement": "Tm Elevation", "setting": "[2]; PO-PO", "value": 7.5, "unit": "°C"},
      {"measurement": "Duplex Strand Separation Temperature", "setting": "[3]; DNA / DNA-PS, drug-bound duplex (Table 6)", "value": "73.0 ± 1.4"},
      {"measurement": "Tm Elevation", "setting": "[3]; PS-PS", "value": 8.6, "unit": "°C"},
      {"measurement": "Duplex Strand Separation Temperature", "setting": "[4]; Oligo dA / Oligo dT, drug-bound duplex (Table 6)", "value": "86.7 ± 0.6"},
      {"measurement": "Tm Elevation", "setting": "[4]; dA-dT", "value": 29.7, "unit": "°C"},
      {"measurement": "Duplex Strand Separation Temperature", "setting": "[5]; Poly rA / Oligo dT (PO), drug-bound duplex (Table 6)", "value": "54.3 ± 0.6"},
      {"measurement": "Stabilization of duplexes", "setting": "[5]; poly(rA)-oligo(dT)", "value": "failure of U-71,184 to stabilize"},
      {"measurement": "Tm Elevation", "setting": "[5]; rA-dT", "value": 1.3, "unit": "°C"}
    ]}
  ]
}
